Entries after “also recorded” stand apart in the source; their conditions may differ.
Tests used:
[1] = Comparative tranquilizing effects: four plates test; format: in vivo
Source text: The method utilized was the 4 plates test of J. R. Boissier, et al (European J. of Pharm. 1968, Vol. 4, pages 145-151).

[2] = Rotarod test, equilibrium (Table 6); format: in vivo
[3] = Effect on muscular relaxation in mice (30° inclined screen, Randall); format: in vivo
Description: The method utilized was the procedure described by Randall (1961) using a 30° inclined screen.

[4] = Emotional conditioning response (CER) in rats (Brady, Skinner box); format: in vivo
Source text: The method utilized that was published by Brady (1956) using a Skinner Box and a combination of a sound, a light and an electrical shock to produce anxiety in the test animals.
The more an animal is anxious, the less important is the score. When a test compound is a powerful anxiolytic, the value of the score is proportional to the dosage.

[5] = Acute toxicity comparison (LD50, Litchfield and Wilcoxan); details: in vivo
Description: Toxicity in test animals to the test compounds in terms of LD50 after oral and intraperitoneal administration was determined according to the procedure of Litchfield and Wilcoxan (1949) and the hypnotic effect on test animals was determined in accordance with the method of Janssen (1959).

[6] = Aggressive behavior elicited by foot shock; format: in vivo; details: oral
Source text: The aggressive behavior of test animals was elicited by a conventional foot shock procedure after administration of Compounds 1 and 4.

[7] = Spontaneous mobility (Svenson and Thieme); format: in vivo
Description: Spontaneous mobility in test animals was determined by the Svenson and Thieme procedure as published in Psychopharmacologia, Vol. 14, 1969, pages 157 et seq.

[8] = ECoG and sedation in test animals free to move; format: in vivo
Description: Some test animals were kept in restraint cases placed in a relatively soundproof room and some were left free to move in metal cases measuring 40×50×30 cm, which were also kept in a relatively quiet environment.
In the test animals which were free to move, the first signs of sedation produced by the intragastric administration of 7.5 mg/kg of compounds 1 and 4 appeared, respectively, at 16 minutes (compound 1) and at 8 minutes (compound 4). […] The duration of the effect was, however, shorter, not exceeding 3 hours under these conditions in contrast to the 5 hour minimum for restricted animals.

[9] = Electrogenesis of various subcortical centers; format: in vivo
Description: This study was conducted with test animals weighing between 2.6 and 2.8 kg, following the stereotaxic method of Monnier and Gangloff (Atlas et techniques stereotaxique pour le cerveau du lopin eveille, 1961, Elsevier Pub. Co.), permitting the stimulation of certain subcortical structures as well as a simultaneous detection and recording of their electrical activities, which were compared to that of reference cortical electrodes. In this study, the subcortical centers considered were the caudate nucleus, the dorsal hippocampus, the lateral thalamus, the mesenephalic reticular formation, and the hypothalamic reticular formation. Test compounds 1 and 4 were administered by the intragastric route with an identical dose of 7.5 mg/kg.
Spontaneous activity in the subcortical centers of the unanesthetized animals is characterized by desynchronized activity consisting of high amplitude and relatively slow rhythms (4 to 5 c/sec.), alternating with low amplitude rapid rhythms (12 to 13 c/sec.). Tracings from the hippocampus and caudate nucleus sometimes takes the form of bursts, which is less commonly the case from the thalamus. These may occur at the same time as bursts of rapid spikes arising from the frontal cortex. During periods of arousal, this desynchronized activity is followed by a synchronized theta rhythm (7 to 8 c/sec.) from the hippocampus and caudate nucleus and from the median thalamus, whereas the cortical and reticular electrical activities are transformed into ultra-rapid and low voltage rhythms (30μ volts).

[10] = Cortical and hippocampal arousal thresholds on stimulation of MRF, median thalamus and posterior hypothalamus; format: in vivo; details: 7.5 mg/kg intragastric
Description: The test animals in this study were prepared by the techniques described by Monnier and Gangloff under the preceding study (infra B, page 30). Stimulation consisted of a series of waves delivered at a frequency of 200 c/sec., lasting 0.3 m sec., with a total duration of the stimulus being 5 sec. These shocks were delivered by a Neurovar neurostimulator (Alvar Electronic) coupled with a CRC cathode oscilloscope (type OC 343). Cerebral electrical activity was recorded on a REEGA MINI HUIT electroencephalograph (Alvar Electronic). The test animals were kept in restraint cages in a relatively soundproof room.
The activity of compounds 1 and 4 was tested in a series of six test animals for each compound, with a single dose of 7.5 mg/kg administered by the intragastric route. In each animal, the arousal threshold was determined for two of the three structures tested so that for each compound, each of the three structures stimulated were tested four times.
In making the baseline tracing, the threshold voltage was determined by a finding that the duration of the arousal reaction produced by the 5-second stimulation exceeded the duration of the stimulation by at least 5 seconds, that is, for a minimum of 10 seconds.
The various thresholds were determined every 45 minutes after administration of the compounds, for a total period of four and one-half hours.
The critical value for raising of a threshold was fixed at 0.1 volts. This constituted the maximum variation recorded during 41/2 hours in the control animals.
The results were taken in two forms and then summarized. In the first result, each animal was observed, yielding the values for the thresholds recorded at each time interval as well as the ratios of the values obtained in each of the stimulated structures.

[11] = Potentiation of narcotic effect of Veronal; details: in vivo
[12] = Motor coordination in rats (rotarod, Dunham and Miya 1957)
[13] = 7.5 mg/kg intragastric, animals free to move

C#CCN1C(=O)CN=C(c2ccccc2)c2cc(Cl)ccc21 [Compound 1, 7-chloro-2,3-dihydro-5-phenyl-1-propargyl-1H-1,4-benzodiazepin-2-one]
ED50 ([1]; 1 h, 60 min. after administration, doses between 0.5 and 4 mg/kg, confidence limits for P = 0.05): 1.75 mg/kg | Duration of effect ([1]; compounds 1 and 4 compared): comparable | median anxiolytic dose (AD50) compared with compound 4 ([1]; four-plate study): nearly three times less than that of compound 4 | anxiolytic effect compared with compound 4 ([1]; in vivo): more effective anxiolytic effect than compound 4 | Rotarod Test % of Animals With Unchanged Equilibrium ([2]; 1 mg/kg): 41.7% | Rotarod Test % of Animals With Unchanged Equilibrium ([2]; 3 mg/kg): 58.3% | changes in equilibrium / motor coordination ([2]; in vivo): does not produce changes in motor activity or in equilibrium | % Relaxed Animals ([3]; 5 mg/kg/os): 10% | % Relaxed Animals ([3]; 10 mg/kg/os): 20% | % Relaxed Animals ([3]; 20 mg/kg/os): 50% | % Relaxed Animals ([3]; 40 mg/kg/os): 70% | ED50 ([3]; Mus musculus, po, muscular relaxation, read-out: ED50 (and C.L.)): 21.5 mg/kg | times less relaxant than compound 3 ([3]; mouse, in vivo): about 1.5 times | times less relaxant than compound 4 ([3]; mouse, in vivo): about 5.6 times | Number of Responses, After - CER ([4]; 1.25 mg/kg/os): 77.83 ± 20.41 | Number of Responses, Before - CER ([4]; 1.25 mg/kg/os): 94.67 ± 13.86 | Number of Responses, CER ([4]; 1.25 mg/kg/os): 27.50 ± 11.32 | Number of Responses, After - CER ([4]; 2.5 mg/kg/os): 112.30 ± 17.56 | Number of Responses, Before - CER ([4]; 2.5 mg/kg/os): 142.10 ± 20.03 | Number of Responses, CER ([4]; 2.5 mg/kg/os): 62.10 ± 9.59 | Number of Responses, After - CER ([4]; 5 mg/kg/os): 128.75 ± 17.13 | Number of Responses, Before - CER ([4]; 5 mg/kg/os): 127.13 ± 20.89 | Number of Responses, CER ([4]; 5 mg/kg/os): 63.50 ± 14.96 | activity in antagonizing CER compared with Compound 3 ([4]; rat, in vivo): about twice as active as Compound 3 | effectiveness in reducing anxiety compared with Composition 4 ([4]; rat, in vivo): twice as effective in reducing anxiety as Composition 4 | oral toxicity compared with Compounds 3 or 4 ([5]; po): lower oral toxicity | LD50 ([5]; Table 11, oral, species not given): 5820 mg/kg | ED50 [6]: 3.3 mg/kg | activity in depressing spontaneous mobility compared with Compound 4 ([7]; in vivo): approximately three times less active than Compound 4 | ED50 ([7]; po, read-out: oral ED50 (depressing spontaneous mobility)): 76.6 mg/kg | duration of the ECoG effect [8, 13]: ≤ 3 h | first signs of sedation [8, 13]: 16 min | duration of ECoG effects (three compounds compared) ([8]; unrestricted animals, compound 3 at 10 mg/kg): about 31/2 | caudate nucleus bursts of rapid spikes, time of maximum periodicity ([9]; 7.5 mg/kg intragastric): 45 min | caudate nucleus spikes ([9]; 7.5 mg/kg intragastric): definite effect of compound 1 on the caudate nucleus | thalamic rhythms ([9]; 7.5 mg/kg intragastric): greater amplitude and lower frequency | EEG activity of the hippocampus ([9]; in vivo): slow and of high amplitude; also recorded: increase the amplitude of these activities and also reduce their frequency | effect on arousal pathways (in words) [10]: preferentially reduces the excitability of the hypothalamo-cortical and hippocampal pathways; also recorded: moderately reduced in duration | % of Mean Variation of arousal threshold, Cortex ([10]; MRF stimulation): +57% | % of Mean Variation of arousal threshold, Hippocampus ([10]; MRF stimulation): +50% | % of Mean Variation of arousal threshold, Cortex ([10]; Median Thalamus stimulation): +67% | % of Mean Variation of arousal threshold, Hippocampus ([10]; Median Thalamus stimulation): +73% | % of Mean Variation of arousal threshold, Cortex ([10]; Posterior Hippocampus): +83% | % of Mean Variation of arousal threshold, Hippocampus ([10]; Posterior hypothalamus stimulation): +78% | narcotic effect of a minimal dose of Veronal [11]: potentiate the narcotic effect of a minimal dose of Veronal | % Uncoordinated Animals ([12]; 48 mg/kg/os): 25% | % Uncoordinated Animals ([12]; 68 mg/kg/os): 50% | % Uncoordinated Animals ([12]; 96 mg/kg/os): 75% | dose needed for same motor uncoordination as after Compound 3 or 4 ([12]; oral): about five times more | TD50 ([12]; rat, rotarod, po): 67.9 mg/kg

From US4313943A, “7-Chloro-2,3-dihydro-5-phenyl-1-propargyl-1H-1,4-benzodiazepine-2-one, and a pharmaceutical composition thereof” (priority 1972, dated 1982)
